Data as given in patent US9776972B2, “Pyrazole derivatives as arginine methyltransferase inhibitors and uses thereof” (priority 2013, dated 2017).
Like-named read-outs stand apart in the source and are kept apart here.

Columns and labels:
[1] = target: T1, human PRMT6 (Homo sapiens, UniProt Q96LA8); assay: PRMT6 Biochemical Assay (3H-SAM Flashplate, peptide substrate); conditions: Biochemical IC50 PRMT6, single experiment or average of multiple experiments
T1 construct: Flag-PRMT6-His; made in house; host or cells: HEK 293F cells (BacMam baculovirus)
T1 sequence (Q96LA8 with tags, fused parts or gaps): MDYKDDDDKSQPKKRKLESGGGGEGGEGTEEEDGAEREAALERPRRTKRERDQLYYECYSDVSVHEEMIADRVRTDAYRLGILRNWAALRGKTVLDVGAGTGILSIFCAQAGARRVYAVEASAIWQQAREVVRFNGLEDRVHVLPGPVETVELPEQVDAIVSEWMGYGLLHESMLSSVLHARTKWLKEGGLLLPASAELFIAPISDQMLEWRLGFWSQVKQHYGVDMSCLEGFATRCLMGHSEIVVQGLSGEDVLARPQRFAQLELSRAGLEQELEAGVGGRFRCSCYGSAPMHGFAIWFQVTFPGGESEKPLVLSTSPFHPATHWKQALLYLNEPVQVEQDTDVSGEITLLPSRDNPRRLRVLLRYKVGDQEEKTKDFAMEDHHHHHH
In short: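 Methylation of a biotin-tagged H4 (36-50) peptide by ³H-SAM was quantified by streptavidin Flashplate capture and scintillation counts (dpm/cpm). Before SAM/peptide addition, Flag-PRMT6-His was preincubated with compound for 30 min at room temperature in Bicine buffer, pH 7.6.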

[2] = system: mono-methyl arginine in RKO cells; assay: RKO Methylation Assay, In Cell Western (ICW) for mono-methyl arginine and DNA content; type: cell-based; conditions: Homo sapiens, RKO, 72 h
In short: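 After fixation, mono-methyl arginine and DNA (DRAQ5) were measured by infrared In-Cell Western imaging at 700/800 nm in RKO cells exposed to compounds for 72 hours. Percent activation used DMSO wells as minimum and 20 μM reference compound as maximum; EC30 curves fitted on triplicate wells.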

[3] = RKO cells, 72 hours, mono-methyl arginine, percent activation, single experiment or average of multiple experiments, read-out: EC30 (In Cell Western data, Numerical)
[4] = read-out: EC30 (In Cell Western data, Numerical, μM)

IC50 [1] | Structure (SMILES) | EC30 [2, 3] | EC30 [2, 4]
1.14 nM | CNCCN(C)Cc1n[nH]cc1-c1ccc(Oc2ccccc2)cc1 [Compound 204] | 0.801 µM | 
1.53 nM | CN(CCN)Cc1c[nH]nc1-c1ccc(Oc2cccc(F)c2)cc1 [Compound 205] | 1.69 µM | 
3.3 nM | CNCCN(C)Cc1cn(C)nc1-c1ccc(Oc2ccccc2)cc1 [Compound 207] | 2.31 µM | 
2.93 nM | CNCCN(C)Cc1cnn(C)c1-c1ccc(Oc2ccccc2)cc1 [Compound 208] | 0.696 µM | 
4.05 nM | CNCCN(C)Cc1c[nH]nc1-c1ccc(OCCCOC)cc1 [Compound 209] | 0.557 µM | 
16.1 nM | CNCCN(C)Cc1n[nH]cc1-c1ccc(OC(C)C)c(F)c1 [Compound 210] | 0.268 µM | 
20.5 nM | CC(C)Oc1ccc(-c2c[nH]nc2CN(C)CCN)cc1Cl [Compound 211] | 0.523 µM | 
9.07 nM | CNCCN(C)Cc1n[nH]cc1-c1ccc(OC(C)C)c(Cl)c1 [Compound 212] | 0.238 µM | 
82.1 nM | CCn1cc(CN(C)CCNC)c(-c2ccc(OC(C)C)cc2)n1 [Compound 213] | 0.708 µM | 
124 nM | CNCCN(C)Cc1cn(C2CCCC2)nc1-c1ccc(OC(C)C)cc1 [Compound 214] | 2.25 µM | 
323 nM | CNCCN(C)Cc1cn(C2CCOC2)nc1-c1ccc(OC(C)C)cc1 (stereo not shown) [Compound 215] | 7.47 µM | 
27.7 nM | CNCCN(C)Cc1cnn(C2CCOC2)c1-c1ccc(OC(C)C)cc1 (stereo not shown) [Compound 216] | 0.726 µM | 
42.1 nM | CNCCN(C)Cc1cn(Cc2ccccc2)nc1-c1ccc(OC(C)C)cc1 [Compound 217] | 2.15 µM | 
132 nM | C=CCn1cc(CN(C)CCNC)c(-c2ccc(OC(C)C)cc2)n1 [Compound 218] | 5.74 µM | 
30.8 nM | C=CCn1ncc(CN(C)CCNC)c1-c1ccc(OC(C)C)cc1 [Compound 219] | 0.919 µM | 
6.72 nM | CNCCN(C)Cc1c[nH]nc1-c1ccc(Oc2ccccc2)c(C#N)c1 [Compound 221] | 0.413 µM | 
1160 nM | CN(CCN)Cc1c(-c2ccc(C#N)cc2)ncn1C [Compound 222] | > 20 µM | 
1.33 nM | CN(CCN)Cc1c[nH]nc1-c1ccc(Oc2ccc(F)cc2)cc1 [Compound 225, N^1-((3-(4-(4-fluorophenoxy)phenyl)-1H-pyrazol-4-yl)methyl)-N^1-methylethane-1,2-diamine] | 0.688 µM | 
13.8 nM | CN(CCN)Cc1c[nH]nc1-c1ccc(Oc2ccccc2)c(C(=O)N(C)C)c1 [Compound 226] | > 20 µM | 
11.5 nM | CNC(=O)c1cc(-c2n[nH]cc2CN(C)CCN)ccc1Oc1ccccc1 [Compound 227] | 15 µM | 
8.22 nM | CNCCN(C)Cc1c[nH]nc1-c1ccc(OCCCOC)c(Cl)c1 [Compound 228] | 0.279 µM | 

Structure (SMILES) | IC50 [1] | EC30 [2, 3] | EC30 [2, 4]
CNCCN(C)Cc1cn(C)nc1-c1ccc(OC(C)C)c(Cl)c1 [Compound 206] | 21.4 nM |  | 1.16 µM
CN(CCN)Cc1c[nH]nc1-c1ccc(Oc2ccccc2)c(F)c1 [Compound 224, N^1-((3-(3-fluoro-4-phenoxyphenyl)-1H-pyrazol-4-yl)methyl)-N^1-methylethane-1,2-diamine] | 1.98 nM |  | 0.27 µM
